The target of test [1] is Ribosomal protein S6 kinase alpha-1 (Homo sapiens, UniProt Q15418). As to the kind of experiment: Selectivity interaction (Ambit KINOMEscan and KiNATiv profiling in Jurkat cells) EUB0000090b RPS6KA1. Format: cell-based. To be noted: at 1 µM.
Test [2] addresses T1, Serine/threonine-protein kinase D2 (Homo sapiens) (UniProt Q9BZL6).
T1 sequence (whole entry): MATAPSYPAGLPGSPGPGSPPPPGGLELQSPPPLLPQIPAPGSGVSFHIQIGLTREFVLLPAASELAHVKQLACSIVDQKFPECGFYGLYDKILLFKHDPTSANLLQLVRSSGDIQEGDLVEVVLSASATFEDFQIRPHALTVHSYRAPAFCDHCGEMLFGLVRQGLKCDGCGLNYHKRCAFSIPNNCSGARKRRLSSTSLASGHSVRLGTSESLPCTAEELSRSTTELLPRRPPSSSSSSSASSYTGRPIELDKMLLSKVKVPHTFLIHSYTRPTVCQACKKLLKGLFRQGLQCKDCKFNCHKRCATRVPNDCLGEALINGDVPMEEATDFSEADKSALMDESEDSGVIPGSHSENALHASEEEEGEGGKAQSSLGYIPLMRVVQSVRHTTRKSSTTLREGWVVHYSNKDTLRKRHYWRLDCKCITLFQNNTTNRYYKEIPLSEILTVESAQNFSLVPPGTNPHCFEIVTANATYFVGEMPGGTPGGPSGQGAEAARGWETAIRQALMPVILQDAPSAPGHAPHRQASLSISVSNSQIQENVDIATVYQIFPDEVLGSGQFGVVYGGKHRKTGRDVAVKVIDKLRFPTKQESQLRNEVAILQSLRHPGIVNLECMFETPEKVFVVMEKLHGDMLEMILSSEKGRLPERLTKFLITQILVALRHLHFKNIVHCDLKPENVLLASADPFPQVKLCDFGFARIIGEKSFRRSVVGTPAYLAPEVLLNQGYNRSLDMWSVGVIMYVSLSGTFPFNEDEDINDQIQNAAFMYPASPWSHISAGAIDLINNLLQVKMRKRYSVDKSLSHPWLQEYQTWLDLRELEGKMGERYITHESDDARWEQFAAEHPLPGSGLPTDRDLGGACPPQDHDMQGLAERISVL
As to the kind of experiment: Selectivity interaction (SelectScreen profiling (Invitrogen)) EUB0000607a PRKD2. To be noted: at 2 µM.

For test [3], the target named is Cyclin-dependent kinase 14 (Homo sapiens) (UniProt O94921). As to the kind of experiment: Selectivity interaction (KinomeScan (DiscoverX)) EUB0000229b CDK14. To be noted: at 10 µM.
In test [4] the target is T2, Cyclin-dependent kinase-like 5 (Homo sapiens) (UniProt O76039).
T2 sequence (whole entry): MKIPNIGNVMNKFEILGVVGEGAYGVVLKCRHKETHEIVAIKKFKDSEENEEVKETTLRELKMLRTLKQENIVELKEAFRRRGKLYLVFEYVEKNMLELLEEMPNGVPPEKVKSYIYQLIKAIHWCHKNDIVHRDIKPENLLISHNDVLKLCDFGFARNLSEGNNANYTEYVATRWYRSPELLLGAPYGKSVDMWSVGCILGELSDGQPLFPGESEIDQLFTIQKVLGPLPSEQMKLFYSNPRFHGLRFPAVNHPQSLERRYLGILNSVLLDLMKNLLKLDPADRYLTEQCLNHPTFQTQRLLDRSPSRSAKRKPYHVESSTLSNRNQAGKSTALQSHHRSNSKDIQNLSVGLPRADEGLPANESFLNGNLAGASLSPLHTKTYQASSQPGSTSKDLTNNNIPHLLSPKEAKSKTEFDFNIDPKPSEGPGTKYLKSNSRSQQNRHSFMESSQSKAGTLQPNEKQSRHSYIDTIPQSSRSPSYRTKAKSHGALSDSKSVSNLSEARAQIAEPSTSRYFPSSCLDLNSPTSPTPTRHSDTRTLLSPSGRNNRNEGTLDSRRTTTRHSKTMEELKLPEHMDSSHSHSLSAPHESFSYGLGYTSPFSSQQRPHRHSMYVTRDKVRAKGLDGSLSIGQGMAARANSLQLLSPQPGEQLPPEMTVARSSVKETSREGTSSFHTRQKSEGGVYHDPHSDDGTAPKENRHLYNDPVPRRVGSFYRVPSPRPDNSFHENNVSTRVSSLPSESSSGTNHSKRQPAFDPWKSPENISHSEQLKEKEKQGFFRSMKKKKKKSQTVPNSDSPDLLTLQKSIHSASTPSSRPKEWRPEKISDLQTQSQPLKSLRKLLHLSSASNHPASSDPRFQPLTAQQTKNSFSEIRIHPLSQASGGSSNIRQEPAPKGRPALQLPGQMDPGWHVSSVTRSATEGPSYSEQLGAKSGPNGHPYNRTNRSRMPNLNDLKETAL
The test can be described thus: Selectivity interaction (KinomeScan (DiscoverX)) EUB0001079a CDKL5. To be noted: at 1 µM.

Test [5] deals with T3, Serine/threonine-protein kinase ULK3 (Homo sapiens) (UniProt Q6PHR2).
T3 sequence (whole entry): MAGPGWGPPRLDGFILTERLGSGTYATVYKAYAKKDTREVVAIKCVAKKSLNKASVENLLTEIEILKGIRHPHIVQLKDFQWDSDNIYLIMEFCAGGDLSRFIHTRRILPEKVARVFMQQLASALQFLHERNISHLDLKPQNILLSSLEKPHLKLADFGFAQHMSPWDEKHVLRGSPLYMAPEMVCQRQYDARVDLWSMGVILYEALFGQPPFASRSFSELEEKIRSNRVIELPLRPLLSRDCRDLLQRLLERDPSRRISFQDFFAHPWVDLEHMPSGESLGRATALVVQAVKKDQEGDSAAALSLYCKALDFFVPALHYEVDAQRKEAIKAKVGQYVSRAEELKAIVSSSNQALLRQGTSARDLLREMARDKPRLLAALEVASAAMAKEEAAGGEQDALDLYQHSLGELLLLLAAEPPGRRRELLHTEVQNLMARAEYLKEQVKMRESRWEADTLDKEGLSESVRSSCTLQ
The test can be described thus: Selectivity interaction (ActivX KiNativ screen (kinase selectivity in THP-1 cell lysates)) EUB0000639a ULK3. Type of test: subcellular. To be noted: lysate, at 5 µM.

Test [6] concerns the target RAC-alpha serine/threonine-protein kinase (Homo sapiens, UniProt P31749). As to the kind of experiment: Selectivity interaction (Millipore kinase profiler) EUB0000124b AKT1. To be noted: at 10 µM.
For test [7], the target named is Mitogen-activated protein kinase 7 (Homo sapiens) (UniProt Q13164). The test can be described thus: Selectivity interaction (KinomeScan (DiscoverX)) EUB0000045b MAPK7.
Sequence of Mitogen-activated protein kinase 7 (Homo sapiens) (Q13164 2-816 limits assumed): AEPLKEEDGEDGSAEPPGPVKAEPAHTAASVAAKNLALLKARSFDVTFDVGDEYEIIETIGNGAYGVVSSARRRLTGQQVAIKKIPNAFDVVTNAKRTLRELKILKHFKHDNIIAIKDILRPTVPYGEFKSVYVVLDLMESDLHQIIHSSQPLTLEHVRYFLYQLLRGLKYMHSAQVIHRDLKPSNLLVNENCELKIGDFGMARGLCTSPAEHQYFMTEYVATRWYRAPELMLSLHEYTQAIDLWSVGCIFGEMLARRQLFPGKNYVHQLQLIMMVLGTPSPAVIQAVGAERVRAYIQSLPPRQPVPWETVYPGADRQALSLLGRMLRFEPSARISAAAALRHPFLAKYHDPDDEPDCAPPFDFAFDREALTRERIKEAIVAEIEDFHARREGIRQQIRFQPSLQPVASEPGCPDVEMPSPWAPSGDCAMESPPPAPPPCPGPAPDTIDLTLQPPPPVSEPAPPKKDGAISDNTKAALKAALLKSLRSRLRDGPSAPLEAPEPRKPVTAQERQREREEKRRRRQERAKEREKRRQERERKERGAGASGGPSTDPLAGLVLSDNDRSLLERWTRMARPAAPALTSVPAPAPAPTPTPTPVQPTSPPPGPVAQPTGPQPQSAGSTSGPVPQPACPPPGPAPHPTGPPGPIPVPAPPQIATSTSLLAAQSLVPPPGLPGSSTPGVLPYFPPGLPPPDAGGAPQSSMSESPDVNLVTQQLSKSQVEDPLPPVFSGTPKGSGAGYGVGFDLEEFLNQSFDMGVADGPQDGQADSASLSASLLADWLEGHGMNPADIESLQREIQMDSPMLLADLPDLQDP

Sequence of RAC-alpha serine/threonine-protein kinase (P31749 whole entry): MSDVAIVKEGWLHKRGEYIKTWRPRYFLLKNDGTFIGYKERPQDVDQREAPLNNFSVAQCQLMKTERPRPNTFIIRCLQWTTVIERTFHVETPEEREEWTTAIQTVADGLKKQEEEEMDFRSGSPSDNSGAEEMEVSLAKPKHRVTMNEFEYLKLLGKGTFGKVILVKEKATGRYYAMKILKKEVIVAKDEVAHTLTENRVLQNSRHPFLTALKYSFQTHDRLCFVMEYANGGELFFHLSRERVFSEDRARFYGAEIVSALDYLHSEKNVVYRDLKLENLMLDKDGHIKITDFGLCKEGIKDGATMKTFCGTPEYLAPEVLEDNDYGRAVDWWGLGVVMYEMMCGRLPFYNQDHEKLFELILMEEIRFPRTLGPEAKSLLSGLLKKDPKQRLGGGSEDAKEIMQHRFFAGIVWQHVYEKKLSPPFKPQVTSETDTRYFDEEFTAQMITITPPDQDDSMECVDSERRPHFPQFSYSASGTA
Sequence of Ribosomal protein S6 kinase alpha-1 (Q15418 whole entry): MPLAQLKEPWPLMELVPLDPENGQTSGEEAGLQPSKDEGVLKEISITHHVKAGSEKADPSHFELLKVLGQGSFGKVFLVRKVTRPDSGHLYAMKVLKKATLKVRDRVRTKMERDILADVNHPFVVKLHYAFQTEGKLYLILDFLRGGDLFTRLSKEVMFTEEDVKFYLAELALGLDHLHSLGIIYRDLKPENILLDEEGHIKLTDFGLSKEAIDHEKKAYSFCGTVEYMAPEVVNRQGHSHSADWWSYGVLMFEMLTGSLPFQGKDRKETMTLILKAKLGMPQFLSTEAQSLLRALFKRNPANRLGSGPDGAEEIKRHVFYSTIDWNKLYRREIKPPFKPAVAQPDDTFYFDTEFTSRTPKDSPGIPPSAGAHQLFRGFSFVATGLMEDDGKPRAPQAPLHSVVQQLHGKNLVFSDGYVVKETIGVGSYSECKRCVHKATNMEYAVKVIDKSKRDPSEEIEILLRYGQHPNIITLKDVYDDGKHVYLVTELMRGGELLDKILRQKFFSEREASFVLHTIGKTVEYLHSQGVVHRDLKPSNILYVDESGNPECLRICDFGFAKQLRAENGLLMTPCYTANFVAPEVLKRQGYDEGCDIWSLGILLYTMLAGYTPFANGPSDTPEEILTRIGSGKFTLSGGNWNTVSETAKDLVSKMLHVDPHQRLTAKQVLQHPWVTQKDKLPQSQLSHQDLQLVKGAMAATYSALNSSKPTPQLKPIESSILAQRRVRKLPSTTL
Sequence of Cyclin-dependent kinase 14 (Homo sapiens) (O94921 whole entry): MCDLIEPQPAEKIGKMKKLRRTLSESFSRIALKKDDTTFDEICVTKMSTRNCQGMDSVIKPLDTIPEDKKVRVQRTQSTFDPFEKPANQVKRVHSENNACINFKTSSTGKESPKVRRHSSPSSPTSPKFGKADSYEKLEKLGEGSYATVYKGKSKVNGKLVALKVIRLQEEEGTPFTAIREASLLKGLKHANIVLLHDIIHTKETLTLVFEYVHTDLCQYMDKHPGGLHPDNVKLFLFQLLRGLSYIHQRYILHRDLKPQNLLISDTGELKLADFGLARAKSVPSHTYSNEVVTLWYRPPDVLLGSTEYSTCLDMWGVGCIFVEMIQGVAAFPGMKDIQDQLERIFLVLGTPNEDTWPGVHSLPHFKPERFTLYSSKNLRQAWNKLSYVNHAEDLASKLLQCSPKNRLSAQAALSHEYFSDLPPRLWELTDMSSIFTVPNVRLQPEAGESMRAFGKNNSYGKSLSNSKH

With `CN(C)C/C=C/C(=O)Nc1ccc(C(=O)N2CCCC(Nc3ncc(Cl)c(-c4c[nH]c5ccccc45)n3)C2)cc1` (stereo not drawn), the % of control in test [1] came to 89%.

As for `CNC(=O)Nc1ccc(-c2nc(N3CC4CCC(C3)O4)c3cnn(C4CCC5(CC4)OCCO5)c3n2)cc1`, the % of inhibition in test [2] was found to be 1%.

On to `COc1cc(N(C)c2ccnc3ccc(C(F)(F)F)cc23)cc(OC)c1OC`, for which the % binding in test [3] stood at 92%.

In test [4], `Nc1cnc(N2CCc3cc(S(=O)(=O)Nc4c(F)cc(Cl)cc4F)cc(N4CCCC4=O)c32)nc1` [TP-020n] returned a % of control of 88%.

As to `CC[C@@H]1[C@H](F)C(=O)N[C@@H]1COc1nccc2cc(C(N)=O)c(OC)cc12` [ZIMLOVISERTIB], in test [5], the % of inhibition was -10.2%.

Turning to `CC(=O)Nc1cccc(-n2c(=O)n(C3CC3)c(=O)c3c(Nc4ccc(I)cc4F)n(C)c(=O)c(C)c32)c1`, the % of control in test [6] was 107%.

Take `C=CC(=O)Nc1cc(-n2c(=O)ccc3cnc4ccc(-c5ccc(NS(C)(=O)=O)cc5)cc4c32)ccc1C`: the % of control in test [7] (at 1 µM) and in test [7] (at 10 µM) was 100% in each case.

The values are drawn from ChEMBL document CHEMBL5465560, “Selectivity Literature for EUbOPEN Chemogenomic Library” (2024).
